Experimental data from ChEMBL document CHEMBL6071196, “Semisynthetic Tetramate-Containing Fungal Metabolites with Activity against Trichomonas vaginalis and Mycoplasma genitalium” (ACS Med Chem Lett, 2024).
pEC50, pIC50: −log10 of the molar value. Converted amounts (≈) assume the structure as drawn. The source made the active and inactive calls. No cut-off for these calls is given here.

Legend:
Mycoplasma genitalium [1] = assay: Antibacterial activity against Mycoplasma genitalium G37C assessed as bacterial growth inhibition incubated for 7 days by phenol red reagent based microbroth dilution assay; type: functional; conditions: Mycoplasmoides genitalium, 168 h, time 7 day
[2] = Selectivity index, ratio of IC50 for cytotoxicity against african green monkey Vero cells incubated for 48 hrs by celltiter blue assay to EC50 for anti-trichomonal activity against Trichomonas vaginalis assessed as inhibition of parasite growth incubated for 18 hrs; type: toxicity, cell-based; conditions: read-out: Ratio IC50/EC50
Trichomonas vaginalis = assay: Anti-trichomonal activity against Trichomonas vaginalis assessed as inhibition of parasite growth incubated for 18 hrs; type: functional, organism-based
[3] = Selectivity index, ratio of IC50 for cytotoxicity against african green monkey Vero cells incubated for 48 hrs by celltiter blue assay to MIC for antibacterial activity against Mycoplasma genitalium G37C assessed as bacterial growth inhibition incubated for 7 days by phenol red reagent based microbroth dilution assay; type: toxicity, cell-based; conditions: read-out: Selectivity Index
Mycoplasma genitalium [4] = assay: Antibacterial activity against Mycoplasma genitalium G37C assessed as growth inhibition at 0.6 uM measured after 1 month relative to control; type: functional, organism-based; conditions: Mycoplasmoides genitalium, time 1.0 months
Mycoplasma genitalium [5] = assay: Antibacterial activity against Mycoplasma genitalium G37C assessed as growth inhibition at 0.4 uM relative to control; type: functional; conditions: Mycoplasmoides genitalium
Mycoplasma genitalium [6] = assay: Antibacterial activity against Mycoplasma genitalium G37C assessed as growth inhibition at 3 uM measured after 1 month relative to control; type: functional, organism-based; conditions: Mycoplasmoides genitalium, time 1.0 months
Mycoplasma genitalium [7] = assay: Antibacterial activity against Mycoplasma genitalium Sea-1 assessed as bacterial growth inhibition incubated for 30 mins by qPCR analysis; type: functional, organism-based; conditions: Mycoplasmoides genitalium, Sea-1, 0.5 h
Mycoplasma genitalium [8] = assay: Antibacterial activity against Mycoplasma genitalium Sea-2 assessed as bacterial growth inhibition incubated for 30 mins by qPCR analysis; type: functional, organism-based; conditions: Mycoplasmoides genitalium, Sea-2, 0.5 h
[9] = Selectivity index, ratio of IC50 for cytotoxicity against african green monkey Vero cells incubated for 48 hrs by celltiter blue assay to IC50 for antibacterial activity against Mycoplasma genitalium Sea-2 assessed as bacterial growth inhibition incubated for 30 mins by qPCR analysis; type: toxicity, cell-based; conditions: read-out: Ratio IC50
[10] = Selectivity index, ratio of IC50 for cytotoxicity against african green monkey Vero cells incubated for 48 hrs by celltiter blue assay to IC50 for antibacterial activity against Mycoplasma genitalium G37C assessed as bacterial growth inhibition incubated for 30 mins by qPCR analysis; type: toxicity, cell-based; conditions: read-out: Ratio IC50
Mycoplasma genitalium [11] = assay: Antibacterial activity against Mycoplasma genitalium G37C assessed as bacterial growth inhibition incubated for 30 mins by qPCR analysis; type: functional, organism-based; conditions: Mycoplasmoides genitalium, 0.5 h
Mycoplasma genitalium [12] = assay: Antibacterial activity against Mycoplasma genitalium G37C assessed as growth inhibition at 2 uM relative to control; type: functional; conditions: Mycoplasmoides genitalium
[13] = Selectivity index, ratio of IC50 for cytotoxicity against african green monkey Vero cells incubated for 48 hrs by celltiter blue assay to IC50 for antibacterial activity against Mycoplasma genitalium Sea-1 assessed as bacterial growth inhibition incubated for 30 mins by qPCR analysis; type: toxicity, cell-based; conditions: read-out: Ratio IC50

SMILES | MIC90 (Mycoplasma genitalium [1]) [µM] | selectivity ratio at 48 h [2] | pEC50 (Trichomonas vaginalis) | selectivity ratio at 48 h [3] | further results
C/C=C/[C@@H]1C=C[C@@H]2C[C@H](C)CC[C@H]2[C@]1(C)/C(O)=C1\C(=O)[C@H](CO)N(C)C1=O | 0.3 (≈ 0.112 µg/mL) | 4.2 | 5.52 | 46.9 | 
C#CCOC[C@@H]1C(=O)/C(=C(/O)[C@@]2(C)[C@@H](/C=C/C=C/C[C@@H](C)O)C(C)=C[C@H]3C[C@@H](C)CC[C@@H]32)C(=O)N1C | 6.3 (≈ 3.12 µg/mL) | 24.3 | 5.41 | 15.1 | 
C/C=C/C=C/[C@H]1C(C)=C[C@H]2C[C@@H](C)CC[C@@H]2[C@@]1(C)/C(O)=C1/C(=O)N[C@H](CO)C1=O | 1 (≈ 0.4 µg/mL) | 119 | 6.10 | 94.8 | 
C/C=C/C=C/[C@H]1C(C)=C[C@H]2C[C@@H](C)CC[C@@H]2[C@@]1(C)/C(O)=C1\C(=O)[C@@H](CO)N(C)C1=O | 0.4 (≈ 0.165 µg/mL) | 32.1 | 5.74 | 141 | inhibition (Mycoplasma genitalium [4]): inactive; inhibition at 0.4 µM (Mycoplasma genitalium [5]): 90%
C/C=C/C=C/[C@H]1C(C)=C[C@H]2C[C@@H](C)CC[C@@H]2[C@@]1(C)/C(O)=C1\C(=O)[C@@H](COCc2cn(Cc3ccc(C(=O)O)cc3)nn2)N(C)C1=O | 19.9 (≈ 12.5 µg/mL) | 12.8 | 5.66 | 1.5 | 
CC1=C[C@H]2C[C@@H](C)CC[C@@H]2[C@@](C)(/C(O)=C2\C(=O)[C@@H](CO)N(C)C2=O)[C@H]1/C=C/C=C/C[C@@H](C)O | 0.9 (≈ 0.412 µg/mL) | 315 | 7.22 | 23.8 | 
C/C=C/[C@@H]1C=C[C@@H]2C[C@H](C)CC[C@H]2[C@]1(C)/C(O)=C1/C(=O)N[C@@H](CO)C1=O | 2.2 (≈ 0.791 µg/mL) | 35.9 | 5.60 | 40 | 
C/C=C/C=C/[C@H]1C(C)=C[C@H]2C[C@@H](C)CC[C@@H]2[C@@]1(C)/C(O)=C1\C(=O)[C@H](COCc2cn(CCc3ccc(O)cc3)nn2)N(C)C1=O | 2.6 (≈ 1.6 µg/mL) |  | < 5.00 | 29.7 | inhibition (Mycoplasma genitalium [6]): inactive; pIC50 (Mycoplasma genitalium [7]): 6.10; pIC50 (Mycoplasma genitalium [8]): 6.00; selectivity ratio at 48 h [9]: 77; selectivity ratio at 48 h [10]: 64; pIC50 (Mycoplasma genitalium [11]): 5.92; inhibition at 2 µM (Mycoplasma genitalium [12]): 90%; selectivity ratio at 48 h [13]: 96
CCCCC[C@H]1[C@H](C)C[C@H]2C[C@@H](C)CC[C@@H]2[C@@]1(C)/C(O)=C1\C(=O)[C@@H](CO)N(C)C1=O | 3.8 (≈ 1.59 µg/mL) | 72.6 | 5.57 | 51.6 | 
CCCCC[C@H]1C(C)=C[C@H]2C[C@@H](C)CC[C@@H]2[C@@]1(C)/C(O)=C1\C(=O)[C@@H](CO)N(C)C1=O | 3.8 (≈ 1.59 µg/mL) | > 170 | 6.15 | 32 | 
CCCCCC1=C(C)C[C@H]2C[C@@H](C)CC[C@@H]2[C@@]1(C)/C(O)=C1\C(=O)[C@@H](CO)N(C)C1=O | 29.9 (≈ 12.5 µg/mL) | > 8 | < 5.00 | 13.1 | 
